Data as given in US10921324B2, “Compositions and methods related to the methylation of histone H1.0 protein” (Aelan Cell Technologies, Inc., priority 2016, dated 2021).
“Also recorded” adds a separate entry of the source. Values belong to the compound of their own block, whether it stands above or below them. Ends that are not written are not given here. Me2 = dimethylated (lysine)

What was measured:
H1.0K180me2 in hADSCs = assay: Western blot / localization of H1.0K180me2 in hADSCs after bleomycin (acute DNA damage); assay type: cell-based, human
Experimental: (§1) For replicative senescence, hADSCs were grown in culture until reaching replicative exhaustion (PD 41-46). For acute DNA damage conditions, SR hADSCs (PD 4-10) were treated with 50μg/ml bloemycin sulfate (Cayman Chemical, 13877) in growth media for 2 hours. For genotoxic stress induced senescence, SR hADSCs (PD 4-10) were treated with 50 μg/ml bloemycin sulfate (Cayman Chemical, 13877) in growth media for 2 hours then washed with PBS and given fresh growth media without bleomycin. Cells were then grown for 3 days before collection.
(§2) Material for western blot analysis (cultured cells or tissue) was lysed in ice-cold RIPA lysis buffer (Thermo Scientific 89900) and sonicated using a Covaris S2 sonicator (10% duty cycle, Intensity 5, Bursts per minute 100, 120 seconds). Total protein concentration in each sample was quantified using Quick Start Bradford 1× Dye Reagent (BioRad, 5000205) following manufacturer's protocol. Samples were then mixed with NuPAGE LDS sample loading buffer (ThermoFisher, NP0007) and NuPAGE sample reducing buffer (ThermoFisher, NP0004), and heat denatured at 70° C. for 10 minutes. […] Proteins were detected with HRP secondary antibodies listed above for 1 hour at RT followed by ECL Western Blotting Substrate (ThermoFisher, 32106) using manufacturer's instructions. […]

[1] = tested on: chromatin bound H1.0 in hADSCs; assay: LC-MS/MS of soluble and chromatin bound fractions of hADSCs after bleomycin; assay type: cell-based, human
Experimental: as §1
SR hADSCs, hADSCs treated with bleomycin for 2 hours (acute DNA damage) and hADSCs treated with bleomycin and allowed to senesce for 3 days (genotoxic stress induced senescence) were lysed and fractionated into soluble and chromatin bound fractions. These fractions were then subjected to LC-MS/MS analysis. Peptide expression levels were taken as the total area under the LC-MS/MS relative intensity curve, and individual peptides were unambiguously assigned to proteins using Pinpoint software, version 1.4 (Thermo Scientific). The areas of all peptides assigned to an individual protein were summed to yield protein expression levels, which were normalized against the total protein library size for each sample. For each cellular fraction, H1.0 peptide abundance is represented as a percentage of total H1.0 peptides observed in each condition. […]

[2] = tested on: secretion of H1.0K180me2 from hADSCs; assay: Slot blot of culture media of hADSCs treated with bleomycin; assay type: cell-based, human
Experimental: 0.5 μl of serum sample or known amounts of synthesized peptide were diluted in 200 μl TBS. Samples were then heat denatured at 70° C. for 10 minutes before being transferred to nitrocellulose membrane using a vacuum manifold slot blot apparatus (BioRad, 1706542). The membrane was blocked with 5% non-fat milk in PBS-T for 30 minutes at RT then immunoblotted with the above primary antibodies at 4° C. over night. Proteins were detected with HRP secondary antibodies listed above for 1 hour at RT followed by ECL Western Blotting Substrate (ThermoFisher, 32106) using manufacturers instructions. All washes between steps were with PBS-T. Membranes were imaged with Omega LUM-C imaging system (Gel Company). Slot blot bands for each sample were then quantified using ImageJ.
SR hADSCs, hADSCs treated with bleomycin for 2 hours (acute DNA damage) and hADSCs treated with bleomycin and allowed to senesce for 3 days (genotoxic stress induced senescence) were lysed and fractionated into soluble and chromatin bound fractions. These fractions were then subjected to LC-MS/MS analysis. Peptide expression levels were taken as the total area under the LC-MS/MS relative intensity curve, and individual peptides were unambiguously assigned to proteins using Pinpoint software, version 1.4 (Thermo Scientific). The areas of all peptides assigned to an individual protein were summed to yield protein expression levels, which were normalized against the total protein library size for each sample. For each cellular fraction, H1.0 peptide abundance is represented as a percentage of total H1.0 peptides observed in each condition. Normalized absolute values of H1.0 peptide levels in each fraction were also shown. […] Culture media from SR hADSCs treated with bleomycin was collected for slot blot analysis with α-H1.0 and α-H1.0K180me2 antibodies to assess secretion of H1.0 to the extracellular matrix (ECM). The experiment was carried out according to methods described in Example 1. […] This signifies secretion out of the cells.

G9A methyltransferase = assay: In vitro methylation of K180me2 H1.0 peptide with G9A, products by LC-MS; assay type: biochemical
Experimental: In order to identify the precise sites of methylation by G9A and GLP methyltransferases on histone H1.0, in vitro methylation assays were performed and subsequently analyzed by Liquid Chromatography and High-resolution Mass Spectrometry (LC-MS) analysis. Methylation reactions were set up using either G9A methyltransferase (NEB, M0235S, Lot #0031201) or GLP methyltransferase (Cayman Chemical, 10755). The methyl donor in each reaction was unlabeled S-Adenosyl-L-Methionine (NEB, B9003S). The H1.0 substrate in each reaction was either unmodified H1.0 peptide labeled with biotin (ThermoFisher Scientific, Biotin-[…] (SEQ ID NO:69)), di-methylated H1.0 peptide (ThermoFisher Scientific, Biotin-[…]^(me2)PK (SEQ ID NO:70)), or full-length recombinant human H1.0 (NEB, M2501S). Methylation reactions were set up in triplicate for each condition as follows: 1×HMT reaction buffer (50 mM Tris-HCl, 5 mM MgCl2, 4 mM dithiothreitol, pH 9.0); 10U G9A or GLP Methyltransferase; 3.2 mM S-Adenosyl-L-Methionine; 500 ng unmodified or modified H1.0 peptide, or 1 μg full-length protein; final volume 10 μl. As controls, reactions were set up as above but without any methyltransferase present. All reactions were incubated in a thermocycler at 37° C. for 1 hour, and subsequently stopped by incubating on ice for 5 minutes. Samples were frozen at −80° C. prior to LC-MS analysis.
(§3) For the Liquid Chromatography and High-resolution Mass Spectrometry (LC-MS) analysis, samples were prepared as described above and about 1 μg o the product was injected onto a Thermo Scientific Easy nLC system configured with a 10 cm×100 um trap column and a 25 cm×100 um ID resolving column. Buffer A was 98% water, 2% methanol, and 0.2% formic acid. […] This ensured optimal full-scan data for quantification. […]
(§4) Protein identification was performed using Thermo Scientific Proteome Discoverer version 1.4 (including Sequest and Percolator algorithms) using RefSeqHuman sequence database. […] Protein quantification was performed using Pinpoint version 1.4 software. The Pinpoint quantification workflow included importing the Proteome Discoverer .msf files as spectral libraries. Identified peptides were subsequently quantified in MS .raw files using the Pinpoint peak finding, chromatographic alignment and area calculation algorithms.
To further address the sensitivity and specificity of G9A methylation to lysine 180 of H1.0 peptide, the K180me2 peptide (H1.0 AA 165-182) was used as a substrate in similar in vitro methylation experiments. Only minor quantitates of further methylated peptide were detected: H1.0K166me1K180me2 (1.27% of the total peptide in the reaction), H1.0K174me1K180me3 (1.06% of the total peptide in the reaction) and H1.0K174me3K175me3K177me1K180me2 (0.35% of the total peptide in the reaction) as shown in FIG. 9B FIG. 10.

GLP methyltransferase = target: T1, GLP methyltransferase (Homo sapiens, UniProt Q9H9B1); assay: In vitro methylation of K180 dimethylated H1.0 peptide with GLP, products by LC-MS; assay type: biochemical; settings: K180 dimethylated H1.0 peptide as substrate, only H1.0K180 and H1.0K174 further methylated
T1 construct: purchased Cayman Chemical 10755
T1 sequence (Q9H9B1 1-1298): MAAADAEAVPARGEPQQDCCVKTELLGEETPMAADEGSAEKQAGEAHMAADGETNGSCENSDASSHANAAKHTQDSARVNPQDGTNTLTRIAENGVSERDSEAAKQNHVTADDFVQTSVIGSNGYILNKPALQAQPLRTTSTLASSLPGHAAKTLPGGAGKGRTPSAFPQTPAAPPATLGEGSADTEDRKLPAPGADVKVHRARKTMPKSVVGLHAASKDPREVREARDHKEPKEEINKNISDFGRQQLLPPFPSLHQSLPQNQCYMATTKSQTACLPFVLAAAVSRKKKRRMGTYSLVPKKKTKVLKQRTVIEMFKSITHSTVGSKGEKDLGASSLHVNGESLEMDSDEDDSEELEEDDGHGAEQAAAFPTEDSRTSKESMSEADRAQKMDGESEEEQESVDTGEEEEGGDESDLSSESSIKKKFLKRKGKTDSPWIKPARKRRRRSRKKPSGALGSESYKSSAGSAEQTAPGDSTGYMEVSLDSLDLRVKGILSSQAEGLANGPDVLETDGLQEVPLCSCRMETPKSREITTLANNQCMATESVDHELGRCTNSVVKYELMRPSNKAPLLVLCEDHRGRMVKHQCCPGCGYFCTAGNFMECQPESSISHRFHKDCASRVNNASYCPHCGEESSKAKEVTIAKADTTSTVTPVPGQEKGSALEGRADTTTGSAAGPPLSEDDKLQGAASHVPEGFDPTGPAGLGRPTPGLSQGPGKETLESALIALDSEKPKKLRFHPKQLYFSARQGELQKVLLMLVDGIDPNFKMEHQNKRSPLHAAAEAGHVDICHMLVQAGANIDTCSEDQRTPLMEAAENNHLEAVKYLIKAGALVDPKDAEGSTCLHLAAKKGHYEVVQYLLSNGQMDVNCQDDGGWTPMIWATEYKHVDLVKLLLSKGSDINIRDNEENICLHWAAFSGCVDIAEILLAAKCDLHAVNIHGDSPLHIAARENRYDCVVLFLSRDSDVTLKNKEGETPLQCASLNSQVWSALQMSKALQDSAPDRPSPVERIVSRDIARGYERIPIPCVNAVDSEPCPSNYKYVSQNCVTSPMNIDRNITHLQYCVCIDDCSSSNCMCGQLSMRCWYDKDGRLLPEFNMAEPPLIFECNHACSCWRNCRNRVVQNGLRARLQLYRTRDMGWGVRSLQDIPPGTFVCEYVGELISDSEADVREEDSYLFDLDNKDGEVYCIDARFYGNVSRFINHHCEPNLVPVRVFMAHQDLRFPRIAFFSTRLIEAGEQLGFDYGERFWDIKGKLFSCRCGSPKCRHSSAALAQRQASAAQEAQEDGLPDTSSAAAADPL
Experimental: In order to identify the precise sites of methylation by G9A and GLP methyltransferases on histone H1.0, in vitro methylation assays were performed and subsequently analyzed by Liquid Chromatography and High-resolution Mass Spectrometry (LC-MS) analysis. Methylation reactions were set up using either G9A methyltransferase (NEB, M0235S, Lot #0031201) or GLP methyltransferase (Cayman Chemical, 10755). The methyl donor in each reaction was unlabeled S-Adenosyl-L-Methionine (NEB, B9003S). […]
as §3, with “column.” for “column. Buffer A was 98% water, 2% methanol, and 0.2% formic acid.”
as §4, with “algorithms. […]” for “algorithms.”

[3] = tested on: H1.0K180me2 appearance in SR hADSCs; assay: Western blot of H1.0K180me2 in hADSCs treated with bleomycin after rapamycin or everolimus pretreatment; assay type: cell-based, human; settings: 500 nM pretreatment for 24 hours, then bleomycin 2 hours
Text: as §2, with “minutes. Proteins were separated on 4-12% precast polyacrylamide gels (ThermoFisher, NP0321) by electrophoresis and transferred to 0.45 μm nitrocellulose membrane.” for “minutes.”
To test if rapamycin derivatives can block H1.0K180me2 appearance upon DNA damage, SR hADSCs were treated with bleomycin for 2 hours with or without pretreatment with rapamycin or everolimus (a derivative of rapamycin) for 24 hours. Cells were then lysed and analyzed be western blot for H1.0K180me2, γH2A.X and β-Actin, according to methods described in Example 1.

[4] = K180me2 peptide (H1.0 AA 165-182) as substrate

Sequence of G9A methyltransferase (Q9Z148 969-1263 limits assumed): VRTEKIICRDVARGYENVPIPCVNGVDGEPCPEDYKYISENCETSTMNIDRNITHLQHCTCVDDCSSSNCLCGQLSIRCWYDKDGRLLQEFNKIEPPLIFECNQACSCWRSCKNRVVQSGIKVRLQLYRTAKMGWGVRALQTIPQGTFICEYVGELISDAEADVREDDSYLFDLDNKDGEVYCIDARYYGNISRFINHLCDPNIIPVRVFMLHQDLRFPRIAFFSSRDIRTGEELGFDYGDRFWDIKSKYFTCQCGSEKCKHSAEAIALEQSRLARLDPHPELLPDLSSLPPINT

Compound: bleomycin
localization of H1.0K180me2 (H1.0K180me2 in hADSCs; SR hADSCs treated with bleomycin): H1.0K180me2 localized to the cytoplasm | H1.0K180me2 on chromatin (H1.0K180me2 in hADSCs; bleomycin 50 μg/ml 2 hours, chromatin bound fraction, western blot): methylation of H1.0K180 on the chromatin upon DNA damage; also recorded: H1.0K180me2 is found on chromatin | chromatin bound H1.0, % of total ([1]; acute DNA damage (bleomycin 2 hours)): ~60% | chromatin bound H1.0, % of total ([1]; genotoxic stress induced senescence (bleomycin 2 hours, then 3 days)): ~30% | secreted H1.0K180me2 in cell culture media ([2]; after 24 hours of bleomycin treatment): secreted H1.0K180me2 was also readily detected | time of maximal H1.0K180me2 secretion ([2]; conditioned medium, time course after bleomycin): ≤ 48 h | DFFB secretion ([2]; upon GSI-SEN, starting 48 hours after treatment): increase in DFFB secretion

H1.0K166me1K180me2, % of the total peptide in the reaction (G9A methyltransferase; [4]): 1.27% | H1.0K174me1K180me3, % of the total peptide in the reaction (G9A methyltransferase; [4]): 1.06% | H1.0K174me3K175me3K177me1K180me2, % of the total peptide in the reaction (G9A methyltransferase; [4]): 0.35% | peptides further methylated (G9A methyltransferase; dimethylated H1.0 peptide as substrate): 2.64% | peptides further methylated (GLP methyltransferase): 1.02%
Compound: AKPVKASKPKKAKPVK(me2)PK (chain 1 AKPVKASKPKKAKPVK(Me2)PK; chain 2 AKPVKASKPKKAKPVK(Me2)PK; not fully specified (N-terminus)) [K180 dimethylated H1.0 peptide, H1.0 AA 165-182 peptide dimethylated at K180]

Compound: CO[C@H]1C[C@@H]2CC[C@@H](C)[C@@](O)(O2)C(=O)C(=O)N2CCCC[C@H]2C(=O)O[C@H]([C@H](C)C[C@@H]2CC[C@@H](OCCO)[C@H](OC)C2)CC(=O)[C@H](C)/C=C(\C)[C@@H](O)[C@@H](OC)C(=O)[C@H](C)C[C@H](C)/C=C/C=C/C=C/1C [everolimus]
appearance of H1.0K180me2 upon bleomycin treatment [3]: blocks H1.0K180me2 deposition on chromatin; also recorded: blocks H1.0K180me2 appearance
